Laboratory results taken from patent US6720346B2, “Thiazole benzamide derivatives and pharmaceutical compositions for inhibiting cell proliferation” (Agouron Pharmaceuticals, Inc., priority 2001, dated 2004).
Structures can show the parent of a compound that is named as a salt.

Experiments:
CDK2/cyclin A = target: T1, CDK2/cyclin A (Homo sapiens, UniProt P24941); test: Inhibition of CDK2/cyclin A retinoblastoma kinase activity (Ki; % inhibition); type: biochemical; details: for Ki: apparent Ki, CDK2/cyclin A, Rb substrate
T1 construct: made in house; host or cells: CDK2: insect cells (baculovirus); cyclin A: E. coli
Summary of the method: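 Apparent Ki values came from fitting concentration-dependent activity data to competitive (or competitive tight-binding) models, and % inhibition from single 30 nM screens of library compounds. Activity was measured as ³²P/³³P incorporation from 25 μM ATP into an Rb substrate by 10 or 19 nM CDK2/delta cyclin A at 30 °C over 60–75 min, pH 7.4.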

human CDK4/cyclin D3 = target: T2, human CDK4/cyclin D3 (Homo sapiens, UniProt P11802); test: Inhibition of CDK4/cyclin D retinoblastoma kinase activity (Ki; % inhibition); type: biochemical; details: for Ki: apparent Ki, CDK4/cyclin D3, Rb substrate
T2 construct: made in house; host or cells: insect cells co-infected with baculovirus vectors
Summary of the method: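 Radiometric filter-binding read-out: Rb residues 386-928 phosphorylated by 5 nM CDK4/cyclin D3(1-264) from baculovirus-infected insect cells, 25 μM ATP, HEPES pH 7.4, 30 °C. Run 20 min, or 60 min for tight-binding inhibitors. Screening at 30 nM theoretical compound; apparent Ki by competitive-inhibition fitting.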

HCT-116 cell line = test: Inhibition of cell growth, MTT tetrazolium salt assay; type: cell-based; details: for IC50: Homo sapiens, HCT-116, 120 h, MTT, three to five days
Summary of the method: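 Growth inhibition was read as MTT-formazan absorbance at 540 nm, after 4 h with 0.2 mg/mL MTT. Before that, HCT-116 cells had been exposed 3–5 days at 37 °C to compounds in 0.5% (v/v) DMSO, added 4 h after plating. 50% and 90% inhibitory concentrations were taken from semi-log concentration–inhibition plots versus vehicle controls.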

[1] = target: T3, Phosphorylated FGF receptor kinase (FGFR1 cytosolic domain) (Homo sapiens, UniProt P11362, C488A/C584S/L457V); test: Inhibition of phosphorylated FGF receptor tyrosine kinase activity (coupled spectrophotometric assay); type: biochemical; details: read-out: P-FGF % Inhibition at 1 μM
T3 construct: FGFR1 tyrosine kinase (amino acids 456-766); made in house; host or cells: Sf9 insect cells (baculovirus)
Procedure: (§1) Cloning, expression and purification of the cytosolic domain of FGFR1 tyrosine kinase (amino acids 456-766) containing three amino acid substitutions (L457V, C488A, and C584S) were conducted as previously described (Mohammadi, M., Schiessinger, J., & Hubbard, S. R. Cell, 86, (1996) 577-587). This domain was expressed in Sf9 insect cells using a baculovirus expression vector, and protein was purified using conventional techniques. The LCK tyrosine kinase was expressed in insect cells as an N-terminal deletion starting from amino acid 223 to the end of the protein at amino acid 509. The N-terminus of the protein also had two amino acid substitutions, P223M and C224D. Kinases were purified using conventional chromatographic methods.
(§2) Tyrosine kinase activity was measured using a coupled, continuous spectrophotometric assay, in which production of phosphorylated poly(Glu,Tyr; 4:1) substrate and ADP is coupled to the pyruvate kinase-catalyzed transfer of a phosphate from phosphoenolpyruvate to ADP, with generation of pyruvate and regeneration of ATP. Pyruvate production is in turn coupled to the lactate dehydrogenase-catalyzed reduction of pyruvate to form lactate, with concomitant conversion of NADH to NAD^+. Loss of NADH is monitored by measuring absorbance at 340 nm (see e.g., Technikova-Dobrova et al., “Spectrophotometric Determination of Functional Characteristics of Protein Kinases with Coupled Enzymatic Assay,” FEBS Letters, 292 (1991), pp. 69-72). Enzyme activity was measured in the presence of 200 mM HEPES (pH 7.5), 2 mM phosphoenolpyruvate, 0.3 mM NADH, 20 mM MgCl2, 100 μM ATP, 5 mM DTT, 5.1 or 25 mM poly (Glu,Tyr) 4:1 for P-FGF or P-LCK assays, respectively, and 15 units/mL each of pyruvate kinase and lactate dehydrogenase. Phosphorylated FGF receptor kinase was present at 100 nM and phosphorylated LCK kinase was present at 50 nM. Assays were performed under initial rate conditions at 37° C., and rates were corrected for any background rate measured in the absence of enzyme. Percent inhibition was calculated relative to control enzyme assayed in the presence of 2% (v/v) DMSO.

[2] = target: T4, phosphorylated LCK kinase (Homo sapiens, UniProt P06239, C224D/P223M); test: Inhibition of phosphorylated LCK tyrosine kinase activity (coupled spectrophotometric assay); type: biochemical; details: read-out: P-LCK % Inhibition at 1 μM
T4 construct: starting from amino acid 223 to the end of the protein at amino acid 509; made in house; host or cells: insect cells
Procedure: as §1, §2

[3] = target: T5, human CDK1 (cdc2)/cyclin B (Homo sapiens, UniProt P06493); test: Inhibition of CDK1 (cdc2)/cyclin B histone H1 kinase activity; type: biochemical; details: histone H1 substrate
T5 construct: purchased New England Biolabs (Beverly, Mass.)
Procedure: Cyclin-dependent kinase activity was measured by quantifying the enzyme-catalyzed, time-dependent incorporation of radioactive phosphate from [^32P]ATP or [^33P]ATP into a protein substrate. Unless noted otherwise, assays were performed in 96-well plates in a total volume of 50 μL, in the presence of 10 mM HEPES (N-[2-hydroxyethyl]piperazine-N′-[2-ethanesulfonic acid]) (pH 7.4), 10 mM MgCl2, 25 μM adenosine triphosphate (ATP), 1 mg/mL ovalbumin, 5 μg/mL leupeptin, 1 mM dithiothreitol, 10 mM β-glycerophosphate, 0.1 mM sodium vanadate, 1 mM sodium fluoride, 2.5 mM ethylene glycol-bis(β-aminoethyl ether)-N,N,N′N′-tetraacetic acid (EGTA), 2% (v/v) dimethylsulfoxide, and 0.03-0.4 μCi [^32/33P]ATP per reaction. Reactions were initiated with enzyme, incubated at 30° C., and terminated after 20 minutes by the addition of ethylenediaminetetraacetic acid (EDTA) to 250 mM. The phosphorylated substrate was then captured on a nitrocellulose or phosphocellulose membrane using a 96-well filtration manifold, and unincorporated radioactivity was removed by repeated washing with 0.85% phosphoric acid. Radioactivity was quantified by exposing the dried membranes to a phosphorimager.
Compounds from combinatorial libraries were screened from 96-well plates for % inhibition of CDK activity at 30 nM theoretical compound concentration. Inhibition was measured relative to control wells that contained all reaction components including 2% (v/v) DMSO but no compound, after subtraction of background radioactivity measured in the absence of enzyme. Apparent Ki values of discrete compounds were measured by assaying enzyme activity in the presence of different inhibitor compound concentrations and subtracting the background radioactivity measured in the absence of enzyme. The kinetic parameters (kcat, Km for ATP) were measured for each enzyme under the usual assay conditions by determining the dependence of initial rates on ATP concentration. Inhibition data were fit to an equation for competitive inhibition using Kaleidagraph (Synergy Software), or were fit to an equation for competitive tight-binding inhibition using the software KineTic (BioKin, Ltd.).
The complex of human CDK1 (cdc2) and cyclin B was purchased from New England Biolabs (Beverly, Mass.). Alternatively, a CDK1/glutathione-S-transferase-cyclin B1 complex was purified using glutathione affinity chromatography from insect cells that had been co-infected with the corresponding baculovirus expression vectors. The assay was executed as described above at 30° C. using 2.5 units of cdc2/cyclin B, 10 μg Histone H1 protein, and 0.1-0.3 μCi [^32/33P]ATP per assay. Phosphorylated histone substrate was captured by microfiltration on a phosphocellulose P81 membrane and quantified using a phosphorimager as described above. Ki values were measured using the described curve-fitting programs.

T4 sequence (P06239 223-509 P223M/C224D): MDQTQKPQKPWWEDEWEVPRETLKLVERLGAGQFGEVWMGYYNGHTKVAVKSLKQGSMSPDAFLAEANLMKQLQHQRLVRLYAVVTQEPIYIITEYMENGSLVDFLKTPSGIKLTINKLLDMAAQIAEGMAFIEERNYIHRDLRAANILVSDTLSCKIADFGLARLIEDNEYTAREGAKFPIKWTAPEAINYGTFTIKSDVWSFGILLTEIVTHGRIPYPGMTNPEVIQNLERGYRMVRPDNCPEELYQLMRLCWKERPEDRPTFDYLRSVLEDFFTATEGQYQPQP
T2 sequence (P11802 whole entry): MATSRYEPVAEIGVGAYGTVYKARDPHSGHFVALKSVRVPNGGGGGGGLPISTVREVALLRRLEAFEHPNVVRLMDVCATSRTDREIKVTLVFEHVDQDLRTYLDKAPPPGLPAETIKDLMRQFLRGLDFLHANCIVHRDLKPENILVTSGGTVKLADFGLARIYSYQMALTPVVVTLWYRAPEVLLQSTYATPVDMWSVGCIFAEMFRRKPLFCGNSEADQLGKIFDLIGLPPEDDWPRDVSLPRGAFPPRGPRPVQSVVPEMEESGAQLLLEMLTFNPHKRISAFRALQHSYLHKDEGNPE
T2 sequence (P30281 1-264 partner limits assumed): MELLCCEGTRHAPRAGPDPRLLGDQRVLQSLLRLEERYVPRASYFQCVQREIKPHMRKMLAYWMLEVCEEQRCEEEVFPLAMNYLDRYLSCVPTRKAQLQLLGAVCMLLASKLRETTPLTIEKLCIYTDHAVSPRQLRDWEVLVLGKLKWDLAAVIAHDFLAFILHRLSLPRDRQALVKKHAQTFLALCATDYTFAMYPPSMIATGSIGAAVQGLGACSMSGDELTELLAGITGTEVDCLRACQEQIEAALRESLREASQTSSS
T3 sequence (P11362 456-766 L457V/C488A/C584S): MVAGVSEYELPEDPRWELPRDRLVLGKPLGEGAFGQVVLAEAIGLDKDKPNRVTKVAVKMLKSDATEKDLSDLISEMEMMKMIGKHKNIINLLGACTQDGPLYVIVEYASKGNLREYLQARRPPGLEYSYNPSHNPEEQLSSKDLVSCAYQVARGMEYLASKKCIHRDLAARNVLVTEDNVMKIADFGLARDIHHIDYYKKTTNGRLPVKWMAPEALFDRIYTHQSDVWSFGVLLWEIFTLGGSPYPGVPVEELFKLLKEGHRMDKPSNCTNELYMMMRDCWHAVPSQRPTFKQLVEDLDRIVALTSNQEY
T5 sequence (P06493 whole entry): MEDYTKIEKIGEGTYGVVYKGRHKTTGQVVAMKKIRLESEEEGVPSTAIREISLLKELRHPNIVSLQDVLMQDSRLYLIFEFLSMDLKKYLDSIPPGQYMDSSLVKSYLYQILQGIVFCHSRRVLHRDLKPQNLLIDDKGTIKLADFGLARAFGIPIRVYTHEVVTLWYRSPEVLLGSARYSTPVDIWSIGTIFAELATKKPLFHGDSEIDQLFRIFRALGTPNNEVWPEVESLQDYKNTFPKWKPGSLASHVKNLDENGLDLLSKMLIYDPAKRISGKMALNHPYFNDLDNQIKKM
T5 sequence (P14635 whole entry partner): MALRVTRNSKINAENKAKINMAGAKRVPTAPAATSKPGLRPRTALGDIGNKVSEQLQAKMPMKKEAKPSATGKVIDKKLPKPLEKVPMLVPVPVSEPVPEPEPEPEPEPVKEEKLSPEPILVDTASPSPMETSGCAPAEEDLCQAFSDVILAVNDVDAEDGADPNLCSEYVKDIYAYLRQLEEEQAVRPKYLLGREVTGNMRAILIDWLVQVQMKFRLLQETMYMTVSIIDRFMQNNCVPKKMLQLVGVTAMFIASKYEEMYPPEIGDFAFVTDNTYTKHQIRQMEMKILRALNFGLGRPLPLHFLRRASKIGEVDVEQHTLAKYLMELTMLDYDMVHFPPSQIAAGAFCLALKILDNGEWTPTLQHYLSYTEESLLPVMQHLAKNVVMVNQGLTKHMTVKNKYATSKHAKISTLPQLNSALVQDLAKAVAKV

Ki (CDK2/cyclin A) [nM] | Ki (human CDK4/cyclin D3) [nM] | IC50 (HCT-116 cell line) [nM] | inhibition at 1 µM [1] [%] | inhibition at 1 µM [2] [%] | Ki [3] [nM] | melting point | CDK2 % Inhibition at 0.03 μM (CDK2/cyclin A; at 0.03 μM) [%] | CDK4 % Inhibition at 0.03 μM (human CDK4/cyclin D3; at 0.03 μM) [%] | SMILES | HCT-116 % Inhibition at 0.1 μM (HCT-116 cell line; HCT-116, at 0.1 μM) [%] | HCT-116 % Inhibition at 0.25 μM (HCT-116 cell line; HCT-116, at 0.25 μM) [%]
72 | 66 | 1200 | 5 | 3 | – | – | – | – | CC(CCCC(C)(C)O)NC(=O)c1ccc(Nc2nc(N)c(C(=O)c3c(F)cccc3F)s2)cc1 (stereo not shown) [Example A5, 4-[4-Amino-5-(2,6-difluoro-benzoyl)-thiazol-2-ylamino]-N-(6-hydroxy-6-methyl-hept-2-yl)-benzamide] | – | –
27 | 12 | 140 | 5 | 5 | – | – | – | – | Nc1nc(Nc2ccc(C(=O)Nc3ccccc3)cc2)sc1C(=O)c1c(F)cccc1F [Example A9, 4-[4-Amino-5-(2,6-difluoro-benzoyl)-thiazol-2-ylamino]-N-phenyl-benzamide] | – | –
120 | 10 | 130 | – | – | 72 | – | – | – | C[C@H](CNC(=O)c1ccc(Nc2nc(N)c(C(=O)c3c(F)cccc3F)s2)cc1)N(C)C [Example A44, 4-[4-Amino-5-(2,6-difluoro-benzoyl)-thiazol-2-ylamino]-N-(2R-dimethylamino-propyl)-benzamide] | – | –
62 | 13 | 94 | 0 | 0 | – | – | – | – | CC(=O)N(C)c1ccc(NC(=O)c2ccc(Nc3nc(N)c(C(=O)c4c(F)cccc4F)s3)cc2)cc1 [Example A25] | – | –
51 | 26 | 100 | 0 | 0 | – | – | – | – | Nc1nc(Nc2ccc(C(=O)Nc3ccc4c(c3)OCCO4)cc2)sc1C(=O)c1c(F)cccc1F [Example A17, 4-[4-Amino-5-(2,6-difluoro-benzoyl)-thiazol-2-ylamino]-N-(2,3-dihydro-benzo[1,4]dioxin-6-yl)-benzamide] | – | –
3.2 | 8 | 140 | 8 | 4 | – | – | – | – | Nc1nc(Nc2ccc(C(=O)NCCNc3ccccc3)cc2)sc1C(=O)c1c(F)cccc1F [Example A2, 4-[4-Amino-5-(2,6-difluoro-benzoyl)-thiazol-2-ylamino]-N-(2-phenylamino-ethyl)-benzamide] | – | –
170 | 21 | 750 | 7 | 5 | – | – | – | – | CN(C)CCN(C)C(=O)c1ccc(Nc2nc(N)c(C(=O)c3c(F)cccc3F)s2)cc1 [Example A3, 4-[4-Amino-5-(2,6-difluoro-benzoyl)-thiazol-2-ylamino]-N-(2-dimethylamino-ethyl)-N-methyl-benzamide] | – | –
– | – | – | – | – | – | 275 to 290 °C (dec.) | – | – | CN(C)CC(C)(C)NC(=O)c1ccc(Nc2nc(N)c(C(=O)c3c(F)cccc3F)s2)cc1 (as salt: hydrochloride) [Example A61, 4-[4-Amino-5-(2,6-difluoro-benzoyl)-thiazol-2-ylamino]-N-(2-dimethylamino-1,1-dimethyl-ethyl)-benzamide Dihydrochloride] | – | –
82 | 14 | 170 | – | 6 | – | – | – | – | CCN1CCCC1CNC(=O)c1ccc(Nc2nc(N)c(C(=O)c3c(F)cccc3F)s2)cc1 (stereo not shown) [Example A11, 4-[4-Amino-5-(2,6-difluoro-benzoyl)-2-ylamino]-N-(1-ethyl-pyrrolidin-2RS-ylmethyl)-benzamide] | – | –
18 | 350 | 120 | – | – | – | – | – | – | C[C@H](CN(C)C)NC(=O)c1ccc(Nc2nc(N)c(C(=O)c3ccccc3F)s2)cc1 [Example A66, Trifluoroacetic Acid Salt] | – | –
48 | 7 | 86 | – | – | – | – | – | – | Nc1nc(Nc2ccc(C(=O)NCCN3CC=CC3)cc2)sc1C(=O)c1c(F)cccc1F [Example A45, 4-[4-Amino-5-(2,6-difluoro-benzoyl)-thiazol-2-ylamino]-N-[2-(2,5-dihydro-pyrrol-1-yl)-ethyl]-benzamide Dihydrochloride Salt] | – | –
– | – | – | – | – | – | – | 4 | 17 | CC(C)OCCNC(=O)c1ccc(Nc2nc(N)c(C(=O)c3c(F)cccc3F)s2)cc1 [Example G168] | 25 | 52
